For one assay, the system named is Male Rj:NMRI mice. The assay can be described thus: Elevated Plus Maze, Mouse (EPM). It counts as in vivo. As to conditions: for Closed Arms Number of Entries % change / Open Arms Number of Entries % change / Open Arms Time Spent (sec) % change: change from vehicle control. The source says: Rodents avoid open spaces (in the case of the assay apparatus, the open arms of an elevated plus-maze). Compounds which have anti-anxiety activity increase exploratory activity of the rodents in the open arms of the elevated plus-maze. The EPM assay was run according to the procedure as described by Handley and Mithani (Naunyn. Schmied. Arch. Pharmacol., 327, 1-5, 1984).
Male Rj:NMRI mice, weighing 20 - 30 g (max. range per experiment = 5 g) at the beginning of the experiments, were obtained from Elevage Janvier, 53940 Le Genest-Saint-Isle, France and used in the assay. The animals were delivered to the laboratory at least 5 days before the experiments during which time they were acclimatized to laboratory conditions. The mice were housed in groups of 10 in Macrolon cages (25 x 19 x 13 cm) on wood litter (Litalabo-SPPS, 95100 Argenteuil, France) with free access to food (Code 113 - SAFE, 89290 Augy, France) and water until tested (or as indicated otherwise). The animal house was maintained under artificial lighting (12 hours) between 7:00 and 19:00 in a controlled ambient temperature of 21 ± 3°C, and relative humidity between 30-80%.
The elevated plus-maze consisted of 4 arms of equal length and width (14 x 5 cm) arranged in the form of a plus sign (+). Two opposite arms were enclosed by 12 cm high walls (closed arms). The 2 other arms had no walls (open arms). The maze was raised 56 cm above the floor. A mouse was placed in the centre of the plus-maze and left to explore the maze for 5 minutes. The number of entries into the open and closed arms and the time spent in the open arms was recorded. Ten (10) mice were used for each study group. The test was performed blind.
(§1) Compound #8 was evaluated at 30 mg/kg, 60 mg/kg and 120 mg/kg doses, administered p.o. 60 minutes before the test, and compared with a vehicle control group. Compound #8 was homogenized and dispersed using a mortar and a pestle in 0.2% hydroxypropylmethylcellulose (HPMC) in distilled water, which served as the vehicle. As a positive control, Clobazam (16 mg/kg p.o.), was administered under the same experimental conditions. Clobazam as URBANYL®tablets (16 mg/kg p.o.) were dispersed in 0.2% hydroxypropylmethylcellulose (HPMC) in distilled water for administration. Each experiment therefore included 5 study groups of 10 mice each.
Data were analyzed by comparing groups treated with compound #8 with groups treated with vehicle control using unpaired Student's t tests. Table 4: Effect of Compound #8 in EPM

The next assay deals with Mouse. The assay can be described thus: Four Plate Test, Mouse. As to conditions: for Number of Punished Crossings % Change: change from vehicle control. It counts as in vivo.
From the text: The Four Plate assay was run according to the procedure as described by Aron et al (Neuropharmacology, 10, 459-469, 1971). In this assay, the rodent experiences an electric shock upon crossing from one plate to another. Anxiolytics (such as benzodiazepines) increase the number of punished crossings.
Animals were placed individually in a white plastic enclosure containing a floor consisting of 4 metal plates connected to an electric shock generator (Apelex : Type 011346). The mouse was left to explore freely for 15 seconds. Then, every time the mouse crossed from one plate to another, it received a weak electric shock (2.5 mA, 1.5 s). The number of punished crossings were counted during a 1 minute test. Ten (10) mice were used for each study group. The test was performed blind.
as §1, with “(32” for “(16”
Data were analyzed by comparing groups treated with compound #8 with groups treated with vehicle control using unpaired Student's t tests. Table 5: Effect of Compound #8 in Four Plate

Setting [1] is: 16 mg/kg p.o., positive control, same experimental conditions, t test vs vehicle p < 0.001.
Where [2] appears, read: 16 mg/kg p.o., positive control.
Where [3] appears, read: 30 mg/kg p.o. 60 minutes before the test, 5 minutes in maze, t test vs vehicle (NS).
[4] abbreviates: 30 mg/kg p.o. 60 minutes before the test.
The mark [5] stands for this setting: 60 mg/kg p.o. 60 minutes before the test, 5 minutes in maze, t test vs vehicle p < 0.01.
[6] abbreviates: 60 mg/kg p.o. 60 minutes before the test.
The mark [7] stands for this setting: 120 mg/kg p.o. 60 minutes before the test, 5 minutes in maze, t test vs vehicle p < 0.05.
Where [8] appears, read: 120 mg/kg p.o. 60 minutes before the test.

Here are results for 2 compounds from patent EP2276481B1, “USE OF BENZO-FUSED HETEROCYCLE SULFAMIDE DERIVATIVES FOR THE TREATMENT OF ANXIETY” (Janssen Pharmaceutica, N.V., priority 2008, dated 2009).

As for `CN1C(=O)CC(=O)N(c2ccccc2)c2cc(Cl)ccc21` [CLOBAZAM, Clobazam, reference compound], in the assay on Male Rj:NMRI mice (setting [1]), the “Open Arms Number of Entries Mean ± S.E.M.” value is recorded as 11.7 ± 1.1 (***) and the “Open Arms Time Spent (sec) Mean ± S.E.M.” value is 120.1 ± 13.1 s. Moreover, the “Closed Arms Number of Entries Mean ± S.E.M.” value with Male Rj:NMRI mice (16 mg/kg p.o., positive control, same experimental conditions, t test vs vehicle p < 0.05) is 11.9 ± 1.5 (*). Further, in the assay with Male Rj:NMRI mice (setting [2]), the “Closed Arms Number of Entries % change” value was “+59%”, the “Open Arms Number of Entries % change” value was “+350%” and the “Open Arms Time Spent (sec) % change” value was “+567%”. In the assay on Mouse (32 mg/kg p.o., positive control, same experimental conditions, t test vs vehicle p < 0.001), the “Number of Punished Crossings Mean ± S.E.M.” value is on record as 9.9 ± 1.2 (***).

With `NS(=O)(=O)NC[C@H]1COc2cc(Cl)ccc2O1` [Compound #8, (2S)-(-)-N-(6-Chloro-2,3-dihydro-benzo[1,4]dioxin-2-ylmethyl)-sulfamide], the “Closed Arms Number of Entries Mean ± S.E.M.” value in the assay on Male Rj:NMRI mice (setting [3]) is listed as 8.5 ± 0.9 (NS); in the assay on Male Rj:NMRI mice (setting [5]) it was 10.3 ± 0.8 (**); with Male Rj:NMRI mice (setting [7]), 10.0 ± 1.1 (*). Also, the results for the “Open Arms Number of Entries Mean ± S.E.M.” value in the assay with Male Rj:NMRI mice (setting [3]), in the assay on Male Rj:NMRI mice (setting [5]) and with Male Rj:NMRI mice (setting [7]) were 3.9 ±0.7 (NS), 5.9 ± 1.0 (**) and 4.5 ± 0.6 (*), respectively. Further, the “Open Arms Time Spent (sec) Mean ± S.E.M.” value was 44.6 ± 8.0 s in the assay on Male Rj:NMRI mice (30 mg/kg p.o. 60 minutes before the test, 5 minutes in maze, t test vs vehicle p < 0.01); 54.1 ± 10.6 s with Male Rj:NMRI mice (setting [5]); 38.6 ± 5.2 s with Male Rj:NMRI mice (120 mg/kg p.o. 60 minutes before the test, 5 minutes in maze, t test vs vehicle p < 0.01). Moreover, the “Closed Arms Number of Entries % change” value in the assay on Male Rj:NMRI mice (setting [4]) is on record as “+13%”; with Male Rj:NMRI mice (setting [6]), “+37%”; in the assay on Male Rj:NMRI mice (setting [8]), “+33%”. Further, the figures for the “Open Arms Number of Entries % change” value in the assay on Male Rj:NMRI mice (setting [4]), in the assay with Male Rj:NMRI mice (setting [6]) and with Male Rj:NMRI mice (setting [8]) were “+50%”, “+127%” and “+73%”, respectively. For the same compound, the figures for the “Open Arms Time Spent (sec) % change” value in the assay on Male Rj:NMRI mice (setting [4]), with Male Rj:NMRI mice (setting [6]) and in the assay with Male Rj:NMRI mice (setting [8]) were “+148%”, “+201%” and “+114%”, respectively. Also, the “Number of Punished Crossings Mean ± S.E.M.” value in the assay on Mouse (30 mg/kg p.o. 60 minutes before the test, 1 minute test, t test vs vehicle (NS)) is 4.5 ± 0.6 (NS); in the assay on Mouse (60 mg/kg p.o. 60 minutes before the test, 1 minute test, t test vs vehicle (NS)) it was 4.5 ± 0.3 (NS); with Mouse (120 mg/kg p.o. 60 minutes before the test, 1 minute test, t test vs vehicle p < 0.01), 6.6 ± 0.6 (**). The “Number of Punished Crossings % Change” value is given as “+15%” in the assay on Mouse (setting [4]), “+15%” in the assay on Mouse (setting [6]) and “+69%” in the assay on Mouse (setting [8]).
